Experimental data reported in patent US20240075080A1, “USE OF LACTIC ACID BACTERIA TO INHIBIT METHANOGEN GROWTH OR REDUCE METHANE EMISSIONS” (Fonterra Co-Operative Group Limited, priority 2020, published 2024).

Legend:
[1] = tested on: Methanobrevibacter boviskoreani JH1; assay: Plate-based methanogen bioassay of culture filtrates (Example 1, phosphate buffer); format: cell-based; settings: filtered supernatant 30% v/v (nisin 4 μM); 5 days at 39° C.; OD600 relative to methanogen without treatment; 16 wells
Experimental: The inoculum of an indicator methanogen strain (Methanobrevibacter boviskoreani JH1) for seeding the plate assay was grown in 9 mL BY medium (Joblin, 2005) supplemented with 0.2 mL of 3 M sodium formate, 0.2 mL of 10 M ethanol, 0.1 mL of Vitamin Solution (Janssen et al., 1997) and 0.1 mL of Coenzyme M Solution (Sigma Aldrich, 0.1 M) by syringe using anaerobic techniques. The head spaces of the tubes were pumped with pressurized O2-free CO2 to 180 kPa and the tubes were incubated at 39° C. without shaking until visible turbidity appeared after 3 to 5 days. Methane produced by the methanogen strain was measured by removing a sample of the headspace gases by syringe and injecting on to a gas chromatograph (GC; Aerograph Corporation, USA) equipped with a Thermal Conductivity Detector (TCD) and using nitrogen as the carrier gas. […] The cultures were routinely observed via wet mounts under fluorescence microscopy, and the methanogen strain appears as short ovoid-shaped rods that fluoresce green under ultraviolet (UV) illumination. […]
Cultures of L. rhamnosus HN001, and control strains (L. plantarum ATCC 8014, L. bulgaricus ATCC 11842) were grown overnight in MRS broth (Sigma-Aldrich) at 39° C. The optical density at 600 nm (OD600) was measured for each culture, and a sample of each was serially diluted through MRS medium and the dilutions plated onto MRS agar plates to determine viable counts. […]

[2] = tested on: Methanobrevibacter boviskoreani JH1; assay: Plate-based methanogen bioassay of bacteriocin extract and supernatant samples (Example 2, MOPS buffer); format: cell-based; settings: for Mean % Growth JH1 / Mean % Inhibition: 30% v/v, sample 1 vs 0.9% NaCl, samples 2-7 vs MRS + NH4 lactate
Experimental: Cultures of the indicator methanogen strain were prepared according to item 1.1.1 of Example 1.
Cell and supernatant samples of L. rhamnosus HN001 were derived from a commercial manufacturing run of ˜5,000 L under standard production conditions. Four samples were used, consisting of: • Sample 1. L. rhamnosus HN001 cell sample, unwashed, freeze-dried, low pH extract. • Sample 2. L. rhamnosus HN001 supernatant sample, evaporated @50° C., 35% solids, ˜8× concentrated. • Sample 3. L. rhamnosus HN001 supernatant sample, evaporated @50° C., 45%+solids; ˜11× concentrated. • Sample 4. L. rhamnosus HN001 supernatant sample, freeze-dried.
These samples were kept frozen at −20° C. until needed. Prior to bioassay, the cell sample (Sample 1) was resuspended at 5% (wt/vol) in 0.9% NaCl, pH 6.8, and processed using the bacteriocin extraction method described in 2.1.3 below, resulting in an extract which was stored frozen at −20° C. until use. The evaporated supernatant samples (Samples 2 & 3) and the freeze-dried supernatant sample (Sample 4) were also resuspended at 5% (wt/vol) in 0.9% NaCl, pH 6.8 and filtered through Millex-GP 0.22 μm 25 mm diameter sterile filters (Millipore, Merck, Sigma-Aldrich NZ) into sterile N2-flushed Hungate tubes using 10 mL syringes. The headspace of the Hungate tubes were further flushed for 30 min with a sterile flow of N2 to remove traces of O2 from the samples.
Heat treatments were carried out with the L. rhamnosus HN001 supernatant which generated a further three samples as follows: • Sample 5. L. rhamnosus HN001 supernatant sample, heated at 72° C./15 sec. • Sample 6. L. rhamnosus HN001 supernatant sample, heated at 75° C./4 min. • Sample 7. L. rhamnosus HN001 supernatant sample, heated at 100° C./4 min.
After heat treatment, the samples were filtered through 0.22 μm filters as described above into sterile N2-flushed Hungate tubes and the headspace flushed with a sterile flow of N2. The samples were stored at −20° C. until screening in the indicator methanogen bioassay.
The resuspended culture was transferred into a 15 mL Falcon tube and the pH adjusted to ˜6.8 with 6M NaOH. The pH-adjusted culture sample was incubated at 70° C. for 45 minutes, then centrifuged for 15 min at 2600×g at 4° C. The supernatant was decanted and the cell pellet was resuspended in 8 mL 0.9% NaCl, pH 2. The pH of the resuspended pellet was checked and if necessary, 1M HCl was used to adjust the final pH to 2. The cells were incubated for 2 hours at 4° C. with slow agitation on a shaking platform. The cells were then centrifuged at 2600×g for 15 min at 4° C., and the supernatant collected into a fresh 15 mL Falcon tube. The pH of the supernatant was adjusted 6.8 with 1M NaOH. The pH-adjusted supernatant was filtered through a Millex-GP 0.22 μm 25 mm diameter sterile filter (Millipore, Merck, Sigma-Aldrich NZ) into a sterile N2-flushed Hungate tube using a 10 mL syringe, under sterile conditions. The filtered supernatant was frozen at −20° C. until use.
The bacteriocin extracts contained under anaerobic conditions in Hungate tubes were placed into an anaerobic chamber and allowed to thaw. All of the assay components except the bacteriocin extracts, were added and mixed in a sterile Hungate tube inside the anaerobic chamber in proportion to those indicated in Table 3 and then dispensed into wells of a multiwell 96 well plate containing the bacteriocin extracts. […]

[3] = nisin >1 μM added to alfalfa hay; cited from earlier work
ruminal methanogens = settings: mixed rumen in vitro assay; cited from earlier work

| Substance | % methanogen growth [1] [%] | inhibition of growth of the indicator methanogen strain (in words) [2] | Mean % Growth JH1 ([2]; Assay 1) [%] | Mean % Inhibition ([2]; Assay 1) [%] | Mean % Growth JH1 ([2]; Assay 2) [%] | Mean % Inhibition ([2]; Assay 2) [%] | ratio of acetate to propionate production (in words) [3] | reduction of methane production (ruminal methanogens) [%] |
| --- | --- | --- | --- | --- | --- | --- | --- | --- |
| Nisin | 12.2 | strong inhibition | 5.2 | 97.5 | 18.2 | 81.8 | reduced |  |
| bovicin HC5 |  |  |  |  |  |  |  | 50 |
